Laboratory results published in patent US11865126B2, “Method for treating anxiety disorders, headache disorders, and eating disorders with psilocybin” (priority 2019, dated 2024).

Test system: healthy subjects
Assay: Symptom Checklist-90 item (SCL-90)
Assay type: in vivo, human
Text: In some embodiments, the Symptom Checklist-90 item (SCL-90) questionnaire is used to evaluate the safety and/or efficacy of psilocybin. The SCL-90 is a relatively brief self-report psychometric instrument designed to evaluate a broad range of psychological problems and symptoms of psychopathology. In some embodiments, the SCL-90 is used to assess somatization, obsessive-compulsive behaviors, interpersonal sensitivity, depression, anxiety, hostility, phobic anxiety, paranoid ideation, and psychoticism of a subject treated according to the methods of the disclosure. The 90 items in the questionnaire are scored on a 5-point Likert scale, indicating the rate of occurrence of the symptom during the time reference. In some embodiments, after treating according to the methods of the disclosure, a subject's SCL-90 score decreases by about 5% to about 100%, for example, by about 5%, about 10%, about 15%, about 20%, about 25%, about 30%, about 35%, about 40%, about 45%, about 50%, about 55%, about 60%, about 65%, about 70%, about 75%, about 80%, about 85%, about 90%, about 95%, or about 100%.
The Neuroticism Extraversion Openness-Five Factor Inventory (NEO-FFI) and Symptom Checklist-90 Item (SCL-90) were administered. Details of the MMRM applied to the change from baseline scores for the NEO-FFI and SCL-90 are provided below in Table 28.

CN(C)CCc1c[nH]c2cccc(OP(=O)(O)O)c12 [psilocybin]
SCL-90 - somatisation change from baseline, difference Psilocybin 10 mg - Placebo (Day 7): 0.1
SCL-90 - somatisation change from baseline, difference Psilocybin 25 mg - Placebo (Day 7): 0.1
SCL-90 - somatisation change from baseline, difference Psilocybin (25 mg-10 mg) (Day 7): −0.0
SCL-90 anger hostility change from baseline, difference Psilocybin 10 mg - Placebo (Day 7): −0.0
SCL-90 anger hostility change from baseline, difference Psilocybin 25 mg - Placebo (Day 7): −0.0
SCL-90 anger hostility change from baseline, difference Psilocybin (25 mg-10 mg) (Day 7): 0.0
SCL-90 anxiety change from baseline, difference Psilocybin 10 mg - Placebo (Day 7): −0.0
SCL-90 anxiety change from baseline, difference Psilocybin 25 mg - Placebo (Day 7): 0.0
SCL-90 anxiety change from baseline, difference Psilocybin (25 mg-10 mg) (Day 7): 0.0
SCL-90 depression change from baseline, difference Psilocybin 10 mg - Placebo (Day 7): 0.0
SCL-90 depression change from baseline, difference Psilocybin 25 mg - Placebo (Day 7): 0.0
SCL-90 depression change from baseline, difference Psilocybin (25 mg-10 mg) (Day 7): −0.0
SCL-90 interpersonal sensitivity change from baseline, difference Psilocybin 10 mg - Placebo (Day 7): −0.0
SCL-90 interpersonal sensitivity change from baseline, difference Psilocybin 25 mg - Placebo (Day 7): 0.0
SCL-90 interpersonal sensitivity change from baseline, difference Psilocybin (25 mg-10 mg) (Day 7): 0.1
SCL-90 obsessive compulsive change from baseline, difference Psilocybin 10 mg - Placebo (Day 7): 0.1
SCL-90 obsessive compulsive change from baseline, difference Psilocybin 25 mg - Placebo (Day 7): 0.1
SCL-90 obsessive compulsive change from baseline, difference Psilocybin (25 mg-10 mg) (Day 7): −0.0
SCL-90 paranoid ideation change from baseline, difference Psilocybin 10 mg - Placebo (Day 7): 0.0
SCL-90 paranoid ideation change from baseline, difference Psilocybin 25 mg - Placebo (Day 7): 0.1
SCL-90 paranoid ideation change from baseline, difference Psilocybin (25 mg-10 mg) (Day 7): 0.1
SCL-90 phobic anxiety change from baseline, difference Psilocybin 10 mg - Placebo (Day 7): −0.0
SCL-90 phobic anxiety change from baseline, difference Psilocybin 25 mg - Placebo (Day 7): 0.0
SCL-90 phobic anxiety change from baseline, difference Psilocybin (25 mg-10 mg) (Day 7): 0.0
SCL-90 psychoticism change from baseline, difference Psilocybin 10 mg - Placebo (Day 7): 0.0
SCL-90 psychoticism change from baseline, difference Psilocybin 25 mg - Placebo (Day 7): 0.0
SCL-90 psychoticism change from baseline, difference Psilocybin (25 mg-10 mg) (Day 7): 0.0
SCL-90 - somatisation change from baseline, difference Psilocybin 10 mg - Placebo (Day 84): 0.0
SCL-90 - somatisation change from baseline, difference Psilocybin 25 mg - Placebo (Day 84): 0.0
SCL-90 - somatisation change from baseline, difference Psilocybin (25 mg-10 mg) (Day 84): 0.0
SCL-90 anger hostility change from baseline, difference Psilocybin 10 mg - Placebo (Day 84): −0.0
SCL-90 anger hostility change from baseline, difference Psilocybin 25 mg - Placebo (Day 84): −0.0
SCL-90 anger hostility change from baseline, difference Psilocybin (25 mg-10 mg) (Day 84): −0.0
SCL-90 anxiety change from baseline, difference Psilocybin 10 mg - Placebo (Day 84): −0.1
SCL-90 anxiety change from baseline, difference Psilocybin 25 mg - Placebo (Day 84): −0.0
SCL-90 anxiety change from baseline, difference Psilocybin (25 mg-10 mg) (Day 84): 0.0
SCL-90 depression change from baseline, difference Psilocybin 10 mg - Placebo (Day 84): 0.0
SCL-90 depression change from baseline, difference Psilocybin 25 mg - Placebo (Day 84): 0.0
SCL-90 depression change from baseline, difference Psilocybin (25 mg-10 mg) (Day 84): 0.0
SCL-90 interpersonal sensitivity change from baseline, difference Psilocybin 10 mg - Placebo (Day 84): −0.1
SCL-90 interpersonal sensitivity change from baseline, difference Psilocybin 25 mg - Placebo (Day 84): −0.0
SCL-90 interpersonal sensitivity change from baseline, difference Psilocybin (25 mg-10 mg) (Day 84): 0.0
SCL-90 obsessive compulsive change from baseline, difference Psilocybin 10 mg - Placebo (Day 84): 0.1
SCL-90 obsessive compulsive change from baseline, difference Psilocybin 25 mg - Placebo (Day 84): 0.0
SCL-90 obsessive compulsive change from baseline, difference Psilocybin (25 mg-10 mg) (Day 84): −0.1
SCL-90 paranoid ideation change from baseline, difference Psilocybin 10 mg - Placebo (Day 84): 0.1
SCL-90 paranoid ideation change from baseline, difference Psilocybin 25 mg - Placebo (Day 84): 0.1
SCL-90 paranoid ideation change from baseline, difference Psilocybin (25 mg-10 mg) (Day 84): 0.0
SCL-90 phobic anxiety change from baseline, difference Psilocybin 10 mg - Placebo (Day 84): −0.0
SCL-90 phobic anxiety change from baseline, difference Psilocybin 25 mg - Placebo (Day 84): 0.0
SCL-90 phobic anxiety change from baseline, difference Psilocybin (25 mg-10 mg) (Day 84): 0.0
SCL-90 psychoticism change from baseline, difference Psilocybin 10 mg - Placebo (Day 84): −0.0
SCL-90 psychoticism change from baseline, difference Psilocybin 25 mg - Placebo (Day 84): −0.0
SCL-90 psychoticism change from baseline, difference Psilocybin (25 mg-10 mg) (Day 84): 0.0
